Measurements as given in US20230405134A1, “NOVEL PROTAC CHIMERIC COMPOUND, AND PHARMACEUTICAL COMPOSITION COMPRISING SAME FOR PREVENTING, AMELIORATING, OR TREATING DISEASES THROUGH TARGET PROTEIN DEGRADATION” (POSTECH RESEARCH AND BUSINESS DEVELOPMENT FOUNDATION, priority 2020, published 2023).
Where a SMILES comes first, the peptide text is derived from it. Bridges are numbered along the chain shown (N, C = ends). [ ]: non-standard residue; d: D form. Cha = N[C@@H](CC1CCCCC1)C(=O)O; S5 = C=CCCC[C@](C)(N)C(=O)O

Experiments:
SRC-1/ND1-YL2/UBR box = molecular target: T1, SRC-1/ND1-YL2/UBR box (UniProt P19812+Q15788); assay: SEC-MALS ternary complex formation; assay type: binding; conditions: SRC-1 alone 20 kDa, UBR box alone 12 kDa
T1 construct: PAS-B domain of human SRC-1 (residues 257-385) tagged with His6; UBR box (residues 113-194) in the UBR1 E3 ubiquitin ligase of S. cerevisiae; His6 (cleaved yes); made in house; host or cells: E. coli BL21 (DE3) pLysS (SRC-1 PAS-B)
T1 sequence (Q15788 257-385): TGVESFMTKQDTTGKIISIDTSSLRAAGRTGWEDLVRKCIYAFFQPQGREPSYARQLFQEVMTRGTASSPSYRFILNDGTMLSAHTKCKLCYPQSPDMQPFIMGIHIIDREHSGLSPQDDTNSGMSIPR
T1 sequence (P19812 113-194): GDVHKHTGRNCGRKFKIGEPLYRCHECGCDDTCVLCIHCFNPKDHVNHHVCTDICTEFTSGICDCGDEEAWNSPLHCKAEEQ
Protocol: An expression plasmid of the PAS-B domain of human SRC-1 (residues 257-385) tagged with His6 was provided by Professor John. A. Robinson. (ChemBioChem 2008, 9, 1318-1322). The plasmid was transformed into BL21 (DE3) pLysS cells, and the protein was cultured in Luria-Bertani broth medium and induced with 0.5 mM IPTG at 18° C. for 16 hours. Cell disruption was performed by ultrasonic treatment in a buffer (50 mM Tris-HCl pH 8.0, 200 mM NaCl and 1 mM TCEP), and insoluble materials were removed by centrifugation. HisTrap™ column (GE Healthcare, 17-5255-01) chromatography was performed on the buffer and 500 mM of imidazole was applied for elution. In order to remove the His6-tag, TEV protease was used and the cleaved samples were loaded in HisTrap™ as described above. The SRC-1 was further purified by size exclusion chromatography (HiLoad™ 16/600 Superdex 75 pg) in a final buffer of 20 mM Tris-HCl pH 7.5, 150 mM NaCl and 1 mM TCEP. […]
The next step was to confirm whether ND1-YL2 could indeed form a ternary complex. […] Light scattering and differential refractive index data were collected and analyzed using ASTRA®V software (Wyatt Technology) (FIG. 12A). The individual molecules SRC-1 and UBR box had molecular masses of 20 and 12 kDa, respectively, and were detected to be 40 kDa in the presence of ND1-YL2, which is a result showing that a ternary complex was formed (FIG. 12A).

MDA-MB-231 cells = assay: Gap closure migration assay; assay type: cell-based, human; conditions: 20 μM, 72 hours
Protocol: Based on the results that the SRC-1 degradation effectively affects the transcription mediated by SRC-1 (FIGS. 18A and 18B), it was predicted that ND1-YL2 would exert an inhibitory effect on downstream signaling pathways such as increased cancer cell migration and invasion. To test this, we first performed a gap closure migration assay using an invasive MDA-MB-231 cell line. MDA-MB-231 cells (70 μL of 4×10^5 cells/mL) were seeded in culture insert 2 wells (ibidi, 80209) pre-inserted into p-dishes (ibidi) under the conditions of 37° C. and 5% CO2. The culture insert 2 wells was gently removed with sterile tweezers. The cells were treated with DMSO, YL2 (20 […]), RLAA (20 μM) or ND1-YL2 (20 μM) in Opti-MEM medium for 72 hours. Images were obtained by a camera (Olympus) attached to an optical microscope. The cells were grown in the culture insert wells, and the inserts were removed to create intercellular gaps inside the wells. Subsequently, after treated with DMSO, YL2, RLAA peptide or ND1-YL2, the cells were cultured for 72 hours and the degree of cell migration was observed. The cell migration was quantified by analyzing the images of cells filling the gap.

SRC-1 = SRC-1 (Homo sapiens, UniProt Q15788); assay: SRC-1 expression level in Colo205 cells by Western blot; assay type: cell-based; parameters: endogenous in cells; conditions: Colo205 cells expressing very low levels of CRBN, various concentrations
Protocol: MDA-MB-231 cells were cultured at 37° C. in Dulbecco's modified Eagle's medium (DMEM) supplemented with penicillin-streptomycin containing 10% fetal bovine serum (FBS) and 5% CO2. Colo205 and A549 cells were cultured at 37° C. in Roswell Park Memorial Institute medium supplemented with penicillin-streptomycin with 10% FBS and 5% CO2.
In order to compare the SRC-1 proteolytic activity of ND1-YL2 and CL1-YL2 peptides in cells, A549 cells, which are human lung carcinoma cells, were treated with various concentrations of CL1-YL2, and the effect on SRC-1 degradation was analyzed by Western blot. A549 cells were seeded at 5×10^5 cells per well in a 6-well plate (Corning). Colo205 cells were seeded at 6×10^5 cells per well in a 6-well plate. After incubation at 37° C. for 24 hours, the cells were treated with the synthesized compounds in Opti-MEM medium. The cells were washed twice with cold Dulbecco's phosphate buffered saline (DPBS) prior to cell lysis. In order to lyse the cells, the cells on ice were treated with lysis buffer (50 mM Tris HCl pH 7.4, 150 mM NaCl, 1% TritonX, 1 mM EDTA, 1 mM DTT and 1×protease inhibitor cocktail). The cell lysate was centrifuged at 13,000×rpm for 15 minutes at 4° C. The supernatant was collected and the protein concentration was determined by Pierce™ 660 nm protein assay. […]

Chain of SRC-1 (Q15788 whole entry): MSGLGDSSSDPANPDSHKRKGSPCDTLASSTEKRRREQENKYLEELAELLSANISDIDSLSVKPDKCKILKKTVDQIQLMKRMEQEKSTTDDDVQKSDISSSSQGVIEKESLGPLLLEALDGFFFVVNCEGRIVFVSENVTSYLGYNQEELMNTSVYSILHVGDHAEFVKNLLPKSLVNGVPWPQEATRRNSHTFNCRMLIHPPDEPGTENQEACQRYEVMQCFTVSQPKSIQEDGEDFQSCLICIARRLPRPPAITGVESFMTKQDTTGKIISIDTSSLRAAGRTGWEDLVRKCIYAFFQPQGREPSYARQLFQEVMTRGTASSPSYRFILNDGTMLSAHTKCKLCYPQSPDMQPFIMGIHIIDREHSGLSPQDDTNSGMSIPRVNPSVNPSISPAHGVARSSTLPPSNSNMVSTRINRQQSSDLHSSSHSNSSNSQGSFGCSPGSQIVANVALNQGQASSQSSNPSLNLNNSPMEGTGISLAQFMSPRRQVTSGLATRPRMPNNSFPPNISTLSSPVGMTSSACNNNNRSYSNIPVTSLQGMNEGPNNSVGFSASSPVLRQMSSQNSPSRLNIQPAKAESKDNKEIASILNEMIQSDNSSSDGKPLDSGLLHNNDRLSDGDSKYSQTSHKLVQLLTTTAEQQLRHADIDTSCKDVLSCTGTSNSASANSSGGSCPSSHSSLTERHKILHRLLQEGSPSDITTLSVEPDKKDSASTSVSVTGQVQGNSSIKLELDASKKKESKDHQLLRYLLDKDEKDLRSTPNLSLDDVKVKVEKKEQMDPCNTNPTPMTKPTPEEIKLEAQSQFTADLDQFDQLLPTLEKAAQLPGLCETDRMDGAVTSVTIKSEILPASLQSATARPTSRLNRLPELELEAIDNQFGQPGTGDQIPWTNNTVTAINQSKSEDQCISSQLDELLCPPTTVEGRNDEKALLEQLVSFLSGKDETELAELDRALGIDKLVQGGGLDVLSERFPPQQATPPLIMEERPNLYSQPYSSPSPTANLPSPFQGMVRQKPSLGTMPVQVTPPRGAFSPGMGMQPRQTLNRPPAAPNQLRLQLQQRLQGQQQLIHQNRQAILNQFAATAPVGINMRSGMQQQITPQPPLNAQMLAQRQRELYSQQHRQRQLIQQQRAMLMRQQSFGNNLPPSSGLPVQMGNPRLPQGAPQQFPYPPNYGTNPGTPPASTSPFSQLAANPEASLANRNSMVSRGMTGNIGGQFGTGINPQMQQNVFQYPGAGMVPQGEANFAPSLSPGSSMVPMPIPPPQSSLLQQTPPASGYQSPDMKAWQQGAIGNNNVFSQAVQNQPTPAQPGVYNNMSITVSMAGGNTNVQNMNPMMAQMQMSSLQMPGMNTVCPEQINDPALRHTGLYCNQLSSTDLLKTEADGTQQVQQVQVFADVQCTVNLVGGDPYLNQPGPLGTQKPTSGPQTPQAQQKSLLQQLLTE

## CC(C)C[C@H](NC(=O)[C@H](C)NC(=O)[C@H](C)NC(=O)[C@H](C)NC(=O)[C@H](C)NC(=O)[C@H](CC(C)C)NC(=O)[C@@H](N)CCCNC(=N)N)C(=O)N[C@@H](CC(C)C)C(=O)N1CCC[C@H]1C(=O)N1CCC[C@H]1C(=O)N[C@H](C(=O)N[C@@H](CCC(=O)O)C(=O)N[C@@H](CCC(N)=O)C(=O)N[C@@H](CC(=O)O)C(=O)N[C@@H](CC(C)C)C(=O)N[C@@]1(C)CCC/C=C\CCC[C@@](C)(C(=O)N[C@@H](Cc2ccc(O)cc2)C(N)=O)NC(=O)[C@H](CC2CCCCC2)NC(=O)[C@H](CC(C)C)NC(=O)[C@H](CCCCN)NC1=O)[C@@H](C)O [ND1-YL2] (H-RLAAAALLPPTEQDL[S5]KL[Cha][S5]Y-NH2; staple (Z) 16-20)
SRC-1/ND1-YL2/UBR box
  Molecular mass detected for SRC-1 and UBR box in the presence of compound: 40 kDa
MDA-MB-231 cells
  Existing gaps maintained (cell migration): about 80%
SRC-1
  Effect on SRC-1 expression level: induced a decrease in the expression level of SRC-1 in a dose-dependent manner
